Test results reported in patent publication EP1462117A1, “Method for in vivo detection of antipsychotic properties of dopamine D3 receptor ligands” (priority 2003, dated 2004).
Counter-ions that a name gives are not always drawn.

Assays:
Swiss mice [1] = assay: MK-801 (dizocilpine)-induced and spontaneous locomotor activity, acute treatment, actimeter; assay type: in vivo
Method: (§1) Male Swiss mice (Iffa Credo, France), weighing 25-30 g, were housed four per cage (25 × 15 × 13 cm), on a 12 hr/12 hr light/dark cycle (lights on at 07:00 a.m.), with food and water ad libitum. […] Experiments with D3R-deficient mice were performed on male homozygous mutant mice and their wild-type littermates. […] The mice used in the present study were backcrossed 7 to 8 times.
Haloperidol (Janssen Pharmaceuticals, Beerse, Belgium) and clozapine (Novartis, Basel, Switzerland) were dissolved in a few drops of hydrochloric acid and distilled water, and the pH of the solution was adjusted to pH 5 to 6 using NaOH. […] The compounds were injected i.p. in a volume of 5 ml/kg.
(§2) All experiments were conducted between 2.00 p.m. and 6.00 p.m., and the animals were kept in the test room at least 1 h before recording their activity. […] Counts for forward horizontal activity were incremented each time the animal moved from one-half part of the cage to the other, corresponding to disruption of two crossed parallel beams distant of 14 cm. In time-course studies, counts were summed every 5 min.
(§3) Between-group differences were analyzed with the Statistica™ software using two-way analysis of variance (ANOVA) and Least Significance Difference (LSD) post-hoc test. The analysis of data obtained with the same animals evaluated on several occasions (time-course experiments), between-within univariate or multivariate ANOVA for repeated measures were used (time being the repeated measure).
To assess simply the in vivo biological activity of the novel compound at the D3 receptor, the above described test, in which hyperlocomotion induced by low doses of dizocilpine is measured, was used.

[2] = system: D3 receptor-deficient mice (D3R^-/-); assay: MK-801-induced locomotor activity in D3 receptor-deficient mice; assay type: in vivo
Method: as §1, §2
(§4) In addition, another experiment was performed with two groups of 8 mice of each genotype, injected with either saline or haloperidol (0.05 mg/kg).
as §3

Swiss mice [3] = assay: Locomotor hyperactivity induced by continuous infusion of MK-801 (osmotic minipumps); assay type: in vivo
Method: Male Swiss mice (IFFA CREDO, France), weighing 26-28 g, were housed six per cage (25 × 15 ×13 cm), on a 12 h/12 h light/dark cycle (lights on at 07:00 a.m.), with food and water freely available. Room temperature ranged from 20° to 22°C and humidity varied between 55% and 65%.
(§5) Dizocilpine, as (+)-MK-801 maleate (Sigma), dissolved in 0.9% NaCl (saline), and its respective vehicle solution, was continuously infused via osmotic minipumps (Model 1007D, Alzet Corp.). Minipumps were filled 6 h prior to implantation and placed in a sterile saline water bath at 37°C. Taking into consideration the average weight of the mice at the time of testing, and the rate of the minipump delivery (specified by the manufacturer), the MK-801 concentration was adjusted to deliver 0.01 or 0.02 mg/kg/hr (0.48 mg/kg/day). Mice were anaesthetized with chloral hydrate (400 mg/kg i.p.), and an area on the back of the mice was shaved and cleaned with 70% ethanol. A small incision was made, a pocket beneath the skin was formed and the minipump was placed inside the pocket in each mouse. The incision was sutured, and cleaned with 70% ethanol. The mice were returned in their home cage and in about 2 h they had recovered and were active.
(§6) Once the minipumps implanted (Day 0), the locomotor activity was measured for 1h, at days 2, 4 and 7 in an actimeter (Imetronic, Pessac, France).
as §3, with “measure). Data from the resident-intruder assay were analyzed by analysis of variance (ANOVA), followed by a Tukey-Kramer Multiple Comparison post-hoc test.” for “measure).”

[4] = system: D3 receptor gene-targeted (D3^-/-) mice; assay: Continuous MK-801 infusion in D3 receptor gene-targeted mice, locomotor activity; assay type: in vivo
Method: as §5, with “A small incision was made, a pocket beneath the skin was formed and the minipump was placed inside the pocket in each mouse. The incision was sutured, and cleaned with 70% ethanol. The mice were returned in their home cage and in about 2 h they had recovered and were active.” left out
as §6
as §3, with “measure). Data from the resident-intruder assay were analyzed by analysis of variance (ANOVA), followed by a Tukey-Kramer Multiple Comparison post-hoc test.” for “measure).”

MK-801-treated mice = assay: Resident-intruder assay in MK-801-treated mice; assay type: in vivo; details: MK-801 0.02 mg/kg/h for 7 days vs sham
Method: Male mice were housed individually or in groups of five for at least 1 week prior to minipump implantation (Day 0), delivering MK-801 (0.02 mg/kg/h) or saline (Sham), and were tested at day 7. As described in Dixon et al. (1994), a group-housed male (intruder) was placed in the home cage of the individually housed male (resident), and their behaviors were video recorded for 5 min. […] The videotaped behaviors of the resident or intruder male were individually scored, by an experimenter unaware of the treatment group, for time spent in social investigation (approaching, sniffing, grooming other mouse, and sexual behavior), and in escape behavior (actively avoiding the unfamiliar congener). The scores for each behavior were subsequently averaged for each group.
as §3, with “measure). Data from the resident-intruder assay were analyzed by analysis of variance (ANOVA), followed by a Tukey-Kramer Multiple Comparison post-hoc test.” for “measure).”

Dopamine transporter = Dopamine transporter binding in monkey striatum (autoradiography); design: species or system Macaca fascicularis; details: dorsolateral quadrant, rostral level
[5] = Plasma concentrations in monkeys (radioreceptor assay); assay type: in vivo; details: monkey; for time of maximal plasma concentration: in vivo; for half-life: plasma
[6] = Plasma concentrations in mice; assay type: in vivo; details: dose inhibiting dizocilpine-induced hyperlocomotion
wild-type (D3R^+/+) mice = assay: MK-801-induced locomotor activity in wild-type mice; assay type: in vivo; details: haloperidol 0.05 mg/kg; MK-801 […]; D3R^+/+ mice
Method: Male Swiss mice (Iffa Credo, France), weighing 25-30 g, were housed four per cage (25 × 15 × 13 cm), on a 12 hr/12 hr light/dark cycle (lights on at 07:00 a.m.), with food and water ad libitum. […] Experiments with D3R-deficient mice were performed on male homozygous mutant mice and their wild-type littermates. […] Subsequently, these mice were backcrossed up to 8 times with C57BL6 mice. The mice used in the present study were backcrossed 7 to 8 times.
as §2, §4, §3

MPTP-intoxicated monkeys = assay: Levodopa-induced dyskinesia, PD-like symptoms and locomotor activity in MPTP-intoxicated monkeys
[7] = chronic infusion through osmotic minipumps for 7 days
[8] = dyskinetic levodopa-treated MPTP-monkeys
[9] = non-dyskinetic levodopa-treated MPTP-monkeys
[10] = habituation phase, 30 min starting 5 min after injection, all doses tested
[11] = one monkey, nafadotride 1.0 mg/kg
[12] = same monkey, nafadotride 1.3 mg/kg

## C[C@]12N[C@H](Cc3ccccc31)c1ccccc12 [MK-801, (+)-5-methyl-10,11-dihydro-5H-dibenzo[a,d]cyclohepten-5,10-imine maleate]
Swiss mice [1]; MK-801 0.12 or 0.3 mg/kg i.p., after 30-min habituation
  locomotor activity after injection of MK-801: locomotor hyperactivity
Swiss mice [1]; locomotor activity, i.p.
  response induced by MK-801 at 0.3 mg/kg relative to […]: about three
[2]; D3 receptor-deficient mice
  MK-801-induced hyperactivity compared with wild-type littermates: two to three times less
[2]; MK-801 0.3 mg/kg, D3R^+/+ vs D3R^-/- mice
  stimulatory effects of MK-801, genotype comparison: no significant differences
Swiss mice [3]; [7]
  duration of locomotor hyperactivity after cessation of the drug delivery: at least 4 days
  time at which locomotor hyperactivity first appeared: 7 days
[4]; MK-801 0.02 mg/kg/h during 7 days, methamphetamine 1 mg/kg i.p.
  hypersensitivity to methamphetamine: completely abolished
[4]; MK-801 0.02 mg/kg/h for 7 days
  attenuation of MK-801-induced hyperactivity compared to wild-type (D3^+/+) mice: ~ 50%
MK-801-treated mice
  Social investigations, effect of the MK-801 treatment: reduced
  escape behavior, effect of the MK-801 treatment: enhancement of escape behavior

## CN1CC=C(c2ccccc2)CC1 [MPTP, 1-methyl-4-phenyl-1,2,3,6-tetrahydropyridine]
Dopamine transporter; MPTP-monkeys
  decrease of DAT binding in Pu: 97.1 ± 0.3%
Dopamine transporter; MPTP-monkeys, vs controls
  decrease of DAT binding in Cd: 96.3 ± 0.3%
Dopamine transporter; [8]
  decrease of DAT binding in Cd: 95.7 ± 0.8%
  decrease of DAT binding in Pu: 95.0 ± 1.3%
Dopamine transporter; [9]
  decrease of DAT binding in Cd: 96.7 ± 0.4%
  decrease of DAT binding in Pu: 97.0 ± 0.4%

## O=C(/C=C/c1ccccc1)NCCCCN1CCc2ccccc2C1 [ST 198, (E)-N-(4-[1,2,3,4-tetrahydroisoquinolin-2-yl]-butyl)-3-phenylacrylamide]
[5]
  time of maximal plasma concentration: 30 min
  half-life: ~30 min
[6]
  maximal plasma concentration: 3.7 ± 0.2 µM

## CN1CCN(C2=Nc3cc(Cl)ccc3Nc3ccccc32)CC1 [clozapine]
Swiss mice [1]; [10]
  spontaneous activity: no effect

## O=C(CCCN1CCC(O)(c2ccc(Cl)cc2)CC1)c1ccc(F)cc1 [haloperidol]
Swiss mice [1]; MK-801 […], 60 min, compound i.p. 0.1, 0.3, 1 mg/kg (haloperidol 0.03, 0.1, 0.3 mg/kg), overall dose-response
  activity with MK-801: strongly and dose-dependently blocked
Swiss mice [1]; compound 0.03 mg/kg i.p., MK-801 […], post-hoc vs saline
  MK-801-induced hyperactivity: significantly reduced
Swiss mice [1]; compound 0.1 mg/kg i.p., MK-801 […], post-hoc vs saline
  MK-801-induced hyperactivity: significantly reduced
Swiss mice [1]; compound 0.3 mg/kg i.p., MK-801 […], post-hoc vs saline
  MK-801-induced hyperactivity: significantly reduced
Swiss mice [1]; compound 0.3 mg/kg i.p., post-hoc vs saline
  spontaneous activity: significantly reduced
Swiss mice [1]; [10]
  spontaneous activity: reduction of the spontaneous activity
wild-type (D3R^+/+) mice
  MK-801-induced locomotor activity: strongly inhibited
Swiss mice [3]; acute administration on the 10th day after minipump implantation, clozapine 1 mg/kg, haloperidol 0.3 mg/kg, BP 897 1 mg/kg
  MK-801-induced hyperactivity: inhibited
Swiss mice [3]; subchronic treatment twice a day for 4.5 days from day 6, BP 897 1 mg/kg, haloperidol 0.3 mg/kg, recorded at least 6 hours after last administration
  spontaneous hyperactivity: reversed
Swiss mice [3]; subchronic treatment twice a day for 4.5 days from day 6, methamphetamine 1 mg/kg, recorded at least 6 hours after last administration
  methamphetamine-induced hyperactivity: reversed

## N[C@@H](Cc1ccc(O)c(O)c1)C(=O)O [levodopa]
MPTP-intoxicated monkeys; dyskinetic monkeys under levodopa, parkinsonism corresponds to a score above 6
  parkinsonian score: 0.2 ± 0.1
MPTP-intoxicated monkeys; five out of nine levodopa-treated monkeys (severe LID), maximum of 4, levodopa 47 to 60 mg/kg twice daily for 6-8 months
  LID score: 3.4 ± 0.1
MPTP-intoxicated monkeys; the four remaining levodopa-treated animals
  LID score: < 0.4

## CCCCN1CCCC1CNC(=O)c1cc(C#N)c2ccccc2c1OC (stereo not shown) [nafadotride, N[(n-butyl-2-pyrrolidinyl)methyl]-1-methoxy-4-cyano naphtalene-2-carboxamide]
[2]; compound 1 mg/kg, MK-801 […], D3R^-/- mice
  locomotor response to MK-801: no longer able to inhibit
[5]
  time of maximal plasma concentration: 60 min
  half-life: ~50 min
MPTP-intoxicated monkeys; from activity counts, threshold at 30% of the maximal activity, over 5 hr
  on-time duration: markedly reduced
MPTP-intoxicated monkeys; [11]
  LID score: 0.5
  PD-like symptoms score: 0
MPTP-intoxicated monkeys; [12]
  score of LID: 0.5
  score of PD-like symptoms: 4
MPTP-intoxicated monkeys; with levodopa
  locomotor activity (activity counts): strongly reduced
MPTP-intoxicated monkeys; with levodopa, at first active dose, nafadotride on 3 out of 4 monkeys, ST 198 30-90 min after administration
  LID: reduction of LID similar to that obtained with BP 897
